Assay results as given in ChEMBL document CHEMBL5512691, “Synthetically Feasible De Novo Molecular Design of Leads Based on a Reinforcement Learning Model: AI-Assisted Discovery of an Anti-IBD Lead Targeting CXCR4” (J Med Chem, 2024).
One block for each molecule: values may come before it. Active and inactive are the calls of the source. The calls are words filed in the database; no cut-off is given here.

Tests used:
[1] = target: T1, C-X-C chemokine receptor type 4 (Homo sapiens, UniProt P61073); test: Competitive binding affinity to CXCR4 (unknown origin) assessed as inhibition of CXCR4 to TN14003 interaction at 10 nM preincubated for 10 mins followed by compound washout and subsequent TN14003 addition for 30 mins prior to incubation under dark condition for 30 mins by DAPI staining based laser scanning confocal microscopic analysis relative to control; design: scale not given: the % may be the effect or the level left
Mus musculus [2] = test: Anti-inflammatory activity in DSS induced C57BL/6 mouse model of colitis assessed as decrease in TNF-alpha expression at 25 mg/kg, IG administered twice daily for 2 weeks by bioluminescence microscopy; format: functional, organism-based
Mus musculus [3] = test: Anti-inflammatory activity in DSS induced C57BL/6 mouse model of colitis assessed as decrease in IL-6 expression at 25 mg/kg, IG administered twice daily for 2 weeks by bioluminescence microscopy; format: functional, organism-based
Mus musculus [4] = test: Anti-inflammatory activity in DSS induced C57BL/6 mouse model of colitis assessed as reduction in DAI score at 25 mg/kg, IG administered twice daily for 2 weeks (reference value: 3); format: functional
Mus musculus [5] = test: Anti-inflammatory activity in DSS induced C57BL/6 mouse model of colitis assessed as decrease in IL-1beta expression at 25 mg/kg, IG administered twice daily for 2 weeks by bioluminescence microscopy; format: functional, organism-based
Mus musculus [6] = test: Anti-inflammatory activity in DSS induced C57BL/6 mouse model of colitis assessed as inhibition rate at 25 mg/kg, IG administered twice daily for 2 weeks; format: functional; design: scale not given: the % may be the effect or the level left
Mus musculus [7] = test: Anti-inflammatory activity in DSS induced C57BL/6 mouse model of colitis assessed as decrease in intestinal track inflammation at 25 mg/kg, IG administered twice daily for 2 weeks by bioluminescence microscopy; format: functional, organism-based
[8] = Clearance in Sprague-Dawley rat at 20 mg/kg, IG measured upto 12 hrs by LC-MS/MS analysis; format: ADME, organism-based; conditions: in vivo, po
[9] = AUC(0 to t) in Sprague-Dawley rat at 20 mg/kg, IG measured upto 12 hrs by LC-MS/MS analysis; format: ADME, organism-based; conditions: in vivo, po
Mus musculus [10] = test: Anti-inflammatory activity in DSS induced C57BL/6 mouse model of colitis assessed as decrease in number of bleeding area at 25 mg/kg, IG administered twice daily for 2 weeks; format: functional, organism-based
[11] = Cmax in Sprague-Dawley rat at 20 mg/kg, IG measured upto 12 hrs by LC-MS/MS analysis; format: ADME, organism-based; conditions: in vivo, po
[12] = Tmax in Sprague-Dawley rat at 2 mg/kg, iv measured upto 12 hrs by LC-MS/MS analysis; format: ADME, organism-based; conditions: in vivo
[13] = Volume of distribution in Sprague-Dawley rat at 20 mg/kg, IG measured upto 12 hrs by LC-MS/MS analysis; format: ADME, organism-based; conditions: in vivo, po
[14] = Stability in human liver microsomes assessed as half life measured upto 45 mins in presence of NADPH by LC-MS analysis; format: ADME, Microsome
[15] = Tmax in Sprague-Dawley rat at 20 mg/kg, IG measured upto 12 hrs by LC-MS/MS analysis; format: ADME, organism-based; conditions: in vivo, po
RAW264.7 [16] = test: Inhibition of CXCL-12 induced chemotaxis in mouse RAW264.7 cells incubated for 22 hrs by transwell assay; format: functional
[17] = AUC(0 to infinity) in Sprague-Dawley rat at 20 mg/kg, IG measured upto 12 hrs by LC-MS/MS analysis; format: ADME, organism-based; conditions: in vivo, po
[18] = Half-life in Sprague-Dawley rat at 20 mg/kg, IG measured upto 12 hrs by LC-MS/MS analysis; format: ADME, organism-based; conditions: in vivo, po
[19] = Stability in human plasma assessed as compound remaining measured upto 120 mins by LC-MS analysis; format: ADME, cell-free; conditions: read-out: Stability
Mus musculus [20] = test: Anti-inflammatory activity in DSS induced C57BL/6 mouse model of colitis assessed as decrease in thickness of colon mucosa at 25 mg/kg, IG administered twice daily for 2 weeks by bioluminescence microscopy; format: functional, organism-based
Mus musculus [21] = test: Anti-inflammatory activity in DSS induced C57BL/6 mouse model of colitis assessed as restoration of structural integrity of epithelium at 25 mg/kg, IG administered twice daily for 2 weeks by bioluminescence microscopy; format: functional, organism-based
Mus musculus [22] = test: Anti-inflammatory activity in DSS induced C57BL/6 mouse model of colitis assessed as decrease in number of bleeding points at 25 mg/kg, IG administered twice daily for 2 weeks; format: functional, organism-based
Mus musculus [23] = test: Anti-inflammatory activity in DSS induced C57BL/6 mouse model of colitis assessed as decrease in inflammatory track infiltration at 25 mg/kg, IG administered twice daily for 2 weeks by bioluminescence microscopy; format: functional, organism-based
RAW264.7 [24] = test: Inhibition of CXCL-12 induced chemotaxis in mouse RAW264.7 cells at 10 nM incubated for 22 hrs by crystal violet staining based transwell assay; format: functional, cell-based
Mus musculus [25] = test: Anti-inflammatory activity in DSS induced C57BL/6 mouse model of colitis assessed as decrease in inflammatory cell infiltration at 25 mg/kg, IG administered twice daily for 2 weeks by bioluminescence microscopy; format: functional, organism-based
[26] = Stability in human plasma assessed as half life measured upto 120 mins by LC-MS analysis; format: ADME, cell-free
[27] = Stability in human liver microsomes assessed as compound remaining measured upto 45 mins in presence of NADPH by LC-MS analysis; format: ADME, Microsome; conditions: read-out: Stability
Mus musculus [28] = test: Anti-inflammatory activity in DSS induced C57BL/6 mouse model of colitis assessed as restoration of number of goblet cells at 25 mg/kg, IG administered twice daily for 2 weeks by bioluminescence microscopy; format: functional, organism-based
[29] = MRT in Sprague-Dawley rat at 20 mg/kg, IG measured upto 12 hrs by LC-MS/MS analysis; format: ADME, organism-based; conditions: in vivo, po
[30] = Cmax in Sprague-Dawley rat at 2 mg/kg, iv measured upto 12 hrs by LC-MS/MS analysis; format: ADME, organism-based; conditions: in vivo
Mus musculus [31] = test: Anti-inflammatory activity in DSS induced C57BL/6 mouse model of colitis assessed as increase in colon length at 25 mg/kg, IG administered twice daily for 2 weeks; format: functional, organism-based
Mus musculus [32] = test: Anti-inflammatory activity in DSS induced C57BL/6 mouse model of colitis assessed as alleviation in colon edema at 25 mg/kg, IG administered twice daily for 2 weeks; format: functional, organism-based
Mus musculus [33] = test: Anti-inflammatory activity in DSS induced C57BL/6 mouse model of colitis assessed as alleviation in body weight loss at 25 mg/kg, IG administered twice daily for 2 weeks; format: functional, organism-based
[34] = Half-life in Sprague-Dawley rat at 2 mg/kg, iv measured upto 12 hrs by LC-MS/MS analysis; format: ADME, organism-based; conditions: in vivo
Mus musculus [35] = test: Anti-inflammatory activity in DSS induced C57BL/6 mouse model of colitis assessed as restoration of integrity of glands at 25 mg/kg, IG administered twice daily for 2 weeks by bioluminescence microscopy; format: functional, organism-based
Mus musculus [36] = test: Anti-inflammatory activity in DSS induced C57BL/6 mouse model of colitis assessed as decrease in colon MPO level at 25 mg/kg, IG administered twice daily for 2 weeks by microplate reader assay; format: functional, organism-based
[37] = Volume of distribution in Sprague-Dawley rat at 2 mg/kg, IV measured upto 12 hrs by LC-MS/MS analysis; format: ADME, organism-based; conditions: in vivo
[38] = Clearance in Sprague-Dawley rat at 2 mg/kg, iv measured upto 12 hrs by LC-MS/MS analysis; format: ADME, organism-based; conditions: in vivo
[39] = AUC(0 to t) in Sprague-Dawley rat at 2 mg/kg, iv measured upto 12 hrs by LC-MS/MS analysis; format: ADME, organism-based; conditions: in vivo
[40] = target: T1, C-X-C chemokine receptor type 4; test: Competitive binding affinity to CXCR4 (unknown origin) assessed as inhibition of CXCR4 to TN14003 interaction preincubated for 10 mins followed by compound washout and subsequent TN14003 addition for 30 mins prior to incubation under dark condition for 30 mins by DAPI staining based laser scanning confocal microscopic analysis
[41] = AUC(0 to infinity) in Sprague-Dawley rat at 2 mg/kg, iv measured upto 12 hrs by LC-MS/MS analysis; format: ADME, organism-based; conditions: in vivo
[42] = Bioavailability in Sprague-Dawley rat at 20 mg/kg, IG measured upto 12 hrs by LC-MS/MS analysis; format: ADME, organism-based; conditions: in vivo, po
[43] = MRT in Sprague-Dawley rat at 2 mg/kg, iv measured upto 12 hrs by LC-MS/MS analysis; format: ADME, organism-based; conditions: in vivo

T1 sequence (P61073 whole entry): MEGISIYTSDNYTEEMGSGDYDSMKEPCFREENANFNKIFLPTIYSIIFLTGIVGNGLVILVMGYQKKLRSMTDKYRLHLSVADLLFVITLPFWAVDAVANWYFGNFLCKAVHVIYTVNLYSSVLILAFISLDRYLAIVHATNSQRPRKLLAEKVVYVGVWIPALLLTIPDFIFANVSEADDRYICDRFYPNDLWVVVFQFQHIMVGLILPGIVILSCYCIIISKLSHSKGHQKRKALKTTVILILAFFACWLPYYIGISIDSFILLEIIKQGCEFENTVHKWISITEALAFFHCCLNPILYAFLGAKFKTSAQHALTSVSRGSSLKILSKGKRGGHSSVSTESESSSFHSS

SMILES: O=C(NC1CCN(Cc2ccccc2)CC1)c1ccc(Cl)cc1Cl
Activity [1]: 61.2%

SMILES: c1cc(CN2CCCNCCNCCCNCC2)ccc1CN1CCCNCCNCCCNCC1 [PLERIXAFOR]
Activity (Mus musculus [2]): Active | Activity (Mus musculus [3]): Active | Activity (Mus musculus [4]): 1.8 | Activity (Mus musculus [5]): Active | Activity [1]: 62.9% | Activity (Mus musculus [6]): 40%

SMILES: O=C(NO)c1ccc(NC(=O)c2ccccc2C(F)(F)F)cc1
Activity [1]: 55.4%

SMILES: CC1CN(C(=O)c2ccccc2C(=O)Nc2ccccc2)CCN1C(=O)c1ccc(F)c(F)c1 (configuration not stated)
Activity [1]: 62.7%

SMILES: Cc1ccc(CN2CCN(c3nc(N)c4sccc4n3)CC2)cc1
Activity [1]: 59.1%

SMILES: O=C(NCc1ccccc1-n1cccn1)c1cnc2ccccc2n1
Activity [1]: 11.1%

SMILES: O=C(c1cnc2ccccc2c1)N1CCC(N2CCCC2)CC1
Activity [1]: 64.5%

SMILES: Cc1c(C)c2ccc(OCc3ccc(F)c(F)c3)cc2oc1=O
Activity [1]: 51.9%

SMILES: O=C(NC1CCN(Cc2cccnc2)CC1)c1cnc2ccccc2c1
Activity (Mus musculus [10]): Active | Activity (Mus musculus [2]): Active | Activity (Mus musculus [3]): Active | inhibition (INH) (RAW264.7 [16]): 75.63% | Activity (Mus musculus [4]): 2 | Activity (Mus musculus [5]): Active | Activity (Mus musculus [22]): Active | inhibition (RAW264.7 [24]): Active | Activity [1]: 67.1% | Activity (Mus musculus [31]): Active | Activity (Mus musculus [32]): Active | Activity (Mus musculus [33]): Active | Activity (Mus musculus [36]): Active | IC50 [40]: 5.7 nM | Activity (Mus musculus [6]): 33.3%

SMILES: COc1ccc(C(=O)N[C@@H]2CCc3[nH]c4ccccc4c3C2)cc1
Activity [1]: 38.3%

SMILES: O=S(=O)(NCc1ccc(-c2ccccc2)cc1)c1cc(F)c(F)cc1F
Activity [1]: 54.9%

SMILES: CC(=O)N1CCC(N(Cc2cccc(C)c2O)C(=O)c2cccc3ccccc23)CC1
Activity [1]: 59.2%

The next lines start with results.

Activity [1]: 53.6%
SMILES: O=C(c1cnc2ccccc2c1)N1CCC(N2CCOCC2)CC1

Activity [1]: 33.7%
SMILES: Cc1cccc(NC(=O)N2CCN(c3nccc4ccccc34)CC2)c1

Activity [1]: 64.3%
SMILES: Cc1cc(O)cc(C(=O)N2CCN(c3ccc(F)cc3)CC2)c1

Activity [1]: 58.6%
SMILES: Fc1ccc(F)c(NCCN2CCN(c3nccc4ccccc34)CC2)c1

Activity [1]: 59.5%
SMILES: Cc1ccc(C)c(CC(=O)N2CCN(c3ccccc3)CC2)c1

CL/F [8]: 109 mL/min/kg | AUC(0-t) at 12 h [9]: 3010 ng·h/mL | Cmax [11]: 1440 ng/mL | Tmax [12]: 4.8 min | Vd [13]: 16.16166 L/kg | half-life [14]: 1.12 h | Tmax [15]: 0.25 h | AUC(0-inf) [17]: 3070 ng·h/mL | half-life [18]: 1.71 h | remaining at 2 h [19]: 87% | half-life [26]: > 2 h | remaining at 0.75 h [27]: 62% | Activity [1]: 78.9% | MRT [29]: 2.62 h | Cmax [30]: 351 ng/mL | half-life [34]: 0.81 h | Vd [37]: 6.04 L/kg | clearance [38]: 99.4 mL/min/kg | AUC(0-t) at 12 h [39]: 330 ng·h/mL | IC50 [40]: 3.2 nM | AUC(0-inf) [41]: 340 ng·h/mL | bioavailability [42]: 91.1% | MRT [43]: 1.03 h
SMILES: O=C(c1ccco1)N1CCN(C2CCN(c3ccccc3)CC2)CC1
Activity (Mus musculus [7]): Active | Activity (Mus musculus [10]): Active | Activity (Mus musculus [2]): Active | Activity (Mus musculus [3]): Active | inhibition (INH) (RAW264.7 [16]): 79.19% | Activity (Mus musculus [4]): 1.4 | Activity (Mus musculus [5]): Active | Activity (Mus musculus [20]): Active | Activity (Mus musculus [21]): Active | Activity (Mus musculus [22]): Active | Activity (Mus musculus [23]): Active | inhibition (RAW264.7 [24]): Active | Activity (Mus musculus [25]): Active | Activity (Mus musculus [28]): Active | Activity (Mus musculus [31]): Active | Activity (Mus musculus [32]): Active | Activity (Mus musculus [33]): Active | Activity (Mus musculus [35]): Active | Activity (Mus musculus [36]): Active | Activity (Mus musculus [6]): 53.3%

Activity [1]: 52.2%
SMILES: O=C(c1cnc2ccccc2c1)N1CCN(c2ccccc2F)CC1

Activity [1]: 64.8%
SMILES: O=S(=O)(c1ccc(F)c(F)c1)N1CCN(c2ccc3ccccc3n2)CC1

Activity [1]: 40.2%
SMILES: O=C(c1cc2ccccc2[nH]1)N1CCN(c2ccc(Cl)cn2)CC1
